These results are taken from ChEMBL document CHEMBL3886852, “Triazolo compounds as PDE10 inhibitors” (2016).

pIC50: −log10 of the molar value.

For the assay, the target named is cAMP and cAMP-inhibited cGMP 3',5'-cyclic phosphodiesterase 10A (Homo sapiens, UniProt Q9Y233). Put plainly: Scintillation Proximity Assay: The human PDE10A full length assay was performed in 96-well micro titer plates. The reaction mixture of 50 μl contained 20 mM HEPES pH=7.5/10 mM MgCl2/0.05 mg/ml BSA (Sigma cat. # A-7906), 50 nM cGMP (Sigma, cat. # G6129) and 50 nM [3H]-cGMP (GE Healthcare, cat. # TRK392 S.A. 13.2 Ci/mmol), 3.75 ng/well PDE10A enzyme (Enzo Life Science, Lausen, Switzerland cat # SE-534) with or without a specific test compound. A range of concentrations of the potential inhibitor was used to generate data for calculating the concentration of inhibitor resulting in 50% of the effect (e.g. IC50, the concentration of the competitor inhibiting PDE10A activity by 50%). Non-specific activity was tested without the enzyme. The reaction was initiated by the addition of the substrate solution (cGMP and [3H]-cGMP) and allowed to progress for 20 minutes at room temperature. The reaction was terminated by adding 25 μl of YSi-SPA scintillation beads (GE Healthcare, cat. # RPNQ0150) in 18 mM zinc sulphate solution (stop reagent). After 1 h under shaking, the plate was centrifuged one minute at 170 g to allow beads to settle. Afterwards, radioactive counts were measured on a Perkin Elmer Top-Count Scintillation plate reader.
Sequence of cAMP and cAMP-inhibited cGMP 3',5'-cyclic phosphodiesterase 10A (Q9Y233 whole entry): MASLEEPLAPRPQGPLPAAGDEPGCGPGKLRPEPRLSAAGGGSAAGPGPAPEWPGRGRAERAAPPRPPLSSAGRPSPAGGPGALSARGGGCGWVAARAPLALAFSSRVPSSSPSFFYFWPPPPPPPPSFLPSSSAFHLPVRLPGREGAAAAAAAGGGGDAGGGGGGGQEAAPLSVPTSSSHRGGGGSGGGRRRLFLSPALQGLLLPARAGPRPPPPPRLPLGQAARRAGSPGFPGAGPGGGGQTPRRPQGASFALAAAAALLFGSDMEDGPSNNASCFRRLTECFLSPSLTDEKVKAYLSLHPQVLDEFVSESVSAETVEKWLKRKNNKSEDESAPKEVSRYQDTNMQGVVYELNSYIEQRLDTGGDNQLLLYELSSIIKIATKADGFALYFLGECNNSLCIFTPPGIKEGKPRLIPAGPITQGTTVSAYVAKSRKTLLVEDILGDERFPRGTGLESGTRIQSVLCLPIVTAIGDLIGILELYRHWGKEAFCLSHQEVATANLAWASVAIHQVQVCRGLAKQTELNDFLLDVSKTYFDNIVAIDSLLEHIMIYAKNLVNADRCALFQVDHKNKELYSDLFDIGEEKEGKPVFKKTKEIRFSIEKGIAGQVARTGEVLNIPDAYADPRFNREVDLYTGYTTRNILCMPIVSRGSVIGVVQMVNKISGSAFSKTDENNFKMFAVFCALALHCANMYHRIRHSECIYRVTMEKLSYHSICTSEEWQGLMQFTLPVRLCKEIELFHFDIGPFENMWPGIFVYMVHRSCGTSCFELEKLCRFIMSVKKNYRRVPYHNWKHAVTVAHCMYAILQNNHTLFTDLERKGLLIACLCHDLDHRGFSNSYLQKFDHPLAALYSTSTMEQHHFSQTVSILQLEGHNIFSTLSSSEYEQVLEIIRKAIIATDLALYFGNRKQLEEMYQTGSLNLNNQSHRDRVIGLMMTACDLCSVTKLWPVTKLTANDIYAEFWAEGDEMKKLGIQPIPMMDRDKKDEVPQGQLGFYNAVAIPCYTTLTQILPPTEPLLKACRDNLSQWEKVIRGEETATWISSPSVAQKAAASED
For the compound `Cc1c(C#N)ccc2nc(CCc3nc(N4CCCC4)nn3C)nn12`, the pIC50 was 8.46. Then `Cc1ncc(C)n2nc(CCc3nc(N4CCCC4)n(C)n3)nc12`, with 8.57; and `Cc1ncc(C)n2nc(CCc3nc(N(C)C)nn3C)nc12`, with 6.48; and `Cn1nc(N2CCCC2)nc1CCc1nc2c(Br)cc(C(F)(F)F)cn2n1`, with 7.44. To `Cc1ccn2nc(CCc3nc(N4CCCC4)nn3C)nc2c1C` belongs 8.35.
